Data reported in US11484539B2, “Compounds and their uses for alleviating menopause-associated symptoms” (Estetra SPRL, priority 2018, dated 2022).

Test system: post-menopausal women
Test: Hot Flush Weekly Weighted Score, dose-finding study
Assay type: in vivo
Details: for Relative change in Hot Flush Weekly Weighted Score, LS adjusted mean: analysis with placebo grouped with 2.5 and 5 mg; for LS adjusted mean change from baseline in Hot Flush Weekly Weighted Score: 15 mg E4; for Covariate significance, covariate trt1, p_value, relative change in Hot Flush Weekly Weighted Score: 15 mg vs placebo grouped with 2.5 and 5 mg
Description: Further, the terms “Hot Flush Weekly Weighted Score”, as used herein, corresponds to a score taking into account frequency and severity which is calculated by using the severity score (as calculated above): [(1× No. of mild VMS)+(2× No. of moderate VMS)+(3× No. of severe VMS)] during a 7 day period.
Such a weighted score was for example used by Notelovitz et al. (“Initial 17β-Estradiol Dose for Treating Vasomotor Symptoms”; Obstetrics and Gynaecology, Vol. 95(5), May 2000, p. 726-731). This score was used to generate the data included in Example 1 further below, under section A. c) “Hot Flush Weekly Weighted Score”.

C[C@]12CC[C@@H]3c4ccc(O)cc4CC[C@H]3[C@@H]1[C@@H](O)[C@@H](O)[C@@H]2O [E4, 1,3,5 (10)-estratrien-3,15alpha,16alpha,17beta-tetrol]
Relative change (% from baseline) in Hot Flush Weekly Weighted Score, mean (10 mg E4 QD per os, week 9): −67% | Mean change from baseline in Hot Flush Weekly Weighted Score (10 mg E4 QD per os, week 10): −109.514 | Relative change (% from baseline) in Hot Flush Weekly Weighted Score, mean (10 mg E4 QD per os, week 10): −68% | Mean change from baseline in Hot Flush Weekly Weighted Score (10 mg E4 QD per os, week 11): −109.532 | Relative change (% from baseline) in Hot Flush Weekly Weighted Score, mean (10 mg E4 QD per os, week 11): −69% | Mean change from baseline in Hot Flush Weekly Weighted Score (10 mg E4 QD per os, week 12): −111.764 | Relative change (% from baseline) in Hot Flush Weekly Weighted Score, mean (10 mg E4 QD per os, week 12): −70% | Difference with placebo, LS adjusted mean, absolute change in Hot Flush Weekly Weighted Score (10 mg E4 vs placebo, week 4): −7.296 | Difference with placebo, LS adjusted mean, absolute change in Hot Flush Weekly Weighted Score (10 mg E4 vs placebo, week 12): −5.078 | Differences with placebo (including ineffective doses 2.5 mg and 5 mg), relative change in Hot Flush Weekly Weighted Score, LS adjusted mean (10.0 mg vs 0 mg, week 4): −0.06006 | Differences with placebo (including ineffective doses 2.5 mg and 5 mg), relative change in Hot Flush Weekly Weighted Score, p_value (10.0 mg vs 0 mg, week 4): 0.4167 | Differences with placebo, relative change in weekly weighted score, p_value (10.0 mg vs 0 mg, week 4): 0.6745 | Differences with placebo (including ineffective doses 2.5 mg and 5 mg), relative change in Hot Flush Weekly Weighted Score, LS adjusted mean (10.0 mg vs 0 mg, week 12): −0.08625 | Differences with placebo (including ineffective doses 2.5 mg and 5 mg), relative change in Hot Flush Weekly Weighted Score, p_value (10.0 mg vs 0 mg, week 12): 0.1404 | Differences with placebo, relative change in weekly weighted score, p_value (10.0 mg vs 0 mg, week 12): 0.7861 | Relative change (% from baseline) in Hot Flush Weekly Weighted Score, mean (10 mg, Week 12): −69% | Relative change (% from baseline) in weekly weighted score, LS adjusted mean (10 mg, Week 12): −0.6994 | Relative change (% from baseline) in Hot Flush Weekly Weighted Score, mean (10 mg, week 0): 0% | Relative change (% from baseline) in Hot Flush Weekly Weighted Score, mean (10 mg, week 1): −20% | Relative change (% from baseline) in Hot Flush Weekly Weighted Score, mean (10 mg, week 2): −34% | Relative change (% from baseline) in Hot Flush Weekly Weighted Score, mean (10 mg, week 3): −46% | Relative change (% from baseline) in Hot Flush Weekly Weighted Score, mean (10 mg, week 4): −53% | Relative change (% from baseline) in weekly weighted score, LS adjusted mean (10 mg, week 4): −0.5419 | Relative change in Hot Flush Weekly Weighted Score, LS adjusted mean (10 mg, week 4): −0.5137 | Relative change (% from baseline) in Hot Flush Weekly Weighted Score, mean (10 mg, week 5): −57% | Relative change (% from baseline) in Hot Flush Weekly Weighted Score, mean (10 mg, week 6): −62% | Relative change (% from baseline) in Hot Flush Weekly Weighted Score, mean (10 mg, week 7): −64% | Relative change (% from baseline) in Hot Flush Weekly Weighted Score, mean (10 mg, week 8): −66% | Relative change (% from baseline) in Hot Flush Weekly Weighted Score, mean (10 mg, week 9): −66% | Relative change (% from baseline) in Hot Flush Weekly Weighted Score, mean (10 mg, week 10): −68% | Relative change (% from baseline) in Hot Flush Weekly Weighted Score, mean (10 mg, week 11): −68% | Relative change in Hot Flush Weekly Weighted Score, LS adjusted mean (10 mg, week 12): −0.6776 | LS adjusted mean change from baseline in Hot Flush Weekly Weighted Score (week 4): −106.3 | LS adjusted mean change from baseline in Hot Flush Weekly Weighted Score (week 12): −130.6 | Mean change from baseline in Hot Flush Weekly Weighted Score (15 mg E4 QD per os, week 0): 2.219 | Mean change from baseline in Hot Flush Weekly Weighted Score (15 mg E4 QD per os, week 1): −33.1745 | Relative change (% from baseline) in Hot Flush Weekly Weighted Score, mean (15 mg E4 QD per os, week 1): −19% | Mean change from baseline in Hot Flush Weekly Weighted Score (15 mg E4 QD per os, week 2): −67.6983 | Relative change (% from baseline) in Hot Flush Weekly Weighted Score, mean (15 mg E4 QD per os, week 2): −43% | Mean change from baseline in Hot Flush Weekly Weighted Score (15 mg E4 QD per os, week 3): −85.1915 | Relative change (% from baseline) in Hot Flush Weekly Weighted Score, mean (15 mg E4 QD per os, week 3): −56% | Mean change from baseline in Hot Flush Weekly Weighted Score (15 mg E4 QD per os, week 4): −98.8329 | Relative change (% from baseline) in Hot Flush Weekly Weighted Score, mean (15 mg E4 QD per os, week 4): −66% | Mean change from baseline in Hot Flush Weekly Weighted Score (15 mg E4 QD per os, week 5): −105.223 | Relative change (% from baseline) in Hot Flush Weekly Weighted Score, mean (15 mg E4 QD per os, week 5): −70% | Mean change from baseline in Hot Flush Weekly Weighted Score (15 mg E4 QD per os, week 6): −110.268 | Relative change (% from baseline) in Hot Flush Weekly Weighted Score, mean (15 mg E4 QD per os, week 6): −74% | Mean change from baseline in Hot Flush Weekly Weighted Score (15 mg E4 QD per os, week 7): −115.263 | Relative change (% from baseline) in Hot Flush Weekly Weighted Score, mean (15 mg E4 QD per os, week 7): −78% | Mean change from baseline in Hot Flush Weekly Weighted Score (15 mg E4 QD per os, week 8): −115.656 | Relative change (% from baseline) in Hot Flush Weekly Weighted Score, mean (15 mg E4 QD per os, week 8): −78% | Mean change from baseline in Hot Flush Weekly Weighted Score (15 mg E4 QD per os, week 9): −118.578 | Relative change (% from baseline) in Hot Flush Weekly Weighted Score, mean (15 mg E4 QD per os, week 9): −80% | Mean change from baseline in Hot Flush Weekly Weighted Score (15 mg E4 QD per os, week 10): −116.853 | Relative change (% from baseline) in Hot Flush Weekly Weighted Score, mean (15 mg E4 QD per os, week 10): −79% | Mean change from baseline in Hot Flush Weekly Weighted Score (15 mg E4 QD per os, week 11): −119.365 | Relative change (% from baseline) in Hot Flush Weekly Weighted Score, mean (15 mg E4 QD per os, week 11): −80% | Mean change from baseline in Hot Flush Weekly Weighted Score (15 mg E4 QD per os, week 12): −121.777 | Relative change (% from baseline) in Hot Flush Weekly Weighted Score, mean (15 mg E4 QD per os, week 12): −82% | Difference with placebo, LS adjusted mean, absolute change in Hot Flush Weekly Weighted Score (15 mg E4 vs placebo, week 4): −28.06 | Difference with placebo, LS adjusted mean, absolute change in Hot Flush Weekly Weighted Score (15 mg E4 vs placebo, week 12): −25.91 | Differences with placebo (including ineffective doses 2.5 mg and 5 mg), relative change in Hot Flush Weekly Weighted Score, LS adjusted mean (15.0 mg vs 0 mg, week 4): −0.1788 | Differences with placebo (including ineffective doses 2.5 mg and 5 mg), relative change in Hot Flush Weekly Weighted Score, p_value (15.0 mg vs 0 mg, week 4): 0.00178 | Differences with placebo, relative change in weekly weighted score, p_value (15.0 mg vs 0 mg, week 4): 0.0267 | Differences with placebo (including ineffective doses 2.5 mg and 5 mg), relative change in Hot Flush Weekly Weighted Score, LS adjusted mean (15.0 mg vs 0 mg, week 12): −0.177 | Differences with placebo (including ineffective doses 2.5 mg and 5 mg), relative change in Hot Flush Weekly Weighted Score, p_value (15.0 mg vs 0 mg, week 12): 0.00097 | Differences with placebo, relative change in weekly weighted score, p_value (15.0 mg vs 0 mg, week 12): 0.0276 | Relative change (% from baseline) in Hot Flush Weekly Weighted Score, mean (15 mg, Week 12): −81% | Relative change (% from baseline) in weekly weighted score, LS adjusted mean (15 mg, Week 12): −0.8122 | Relative change (% from baseline) in Hot Flush Weekly Weighted Score, mean (15 mg, week 0): 0% | Relative change (% from baseline) in Hot Flush Weekly Weighted Score, mean (15 mg, week 1): −22% | Relative change (% from baseline) in Hot Flush Weekly Weighted Score, mean (15 mg, week 2): −45% | Relative change (% from baseline) in Hot Flush Weekly Weighted Score, mean (15 mg, week 3): −56% | Relative change (% from baseline) in Hot Flush Weekly Weighted Score, mean (15 mg, week 4): −66% | Relative change (% from baseline) in weekly weighted score, LS adjusted mean (15 mg, week 4): −0.6503 | Relative change in Hot Flush Weekly Weighted Score, LS adjusted mean (15 mg, week 4): −0.6324 | Relative change (% from baseline) in Hot Flush Weekly Weighted Score, mean (15 mg, week 5): −70% | Relative change (% from baseline) in Hot Flush Weekly Weighted Score, mean (15 mg, week 6): −72% | Relative change (% from baseline) in Hot Flush Weekly Weighted Score, mean (15 mg, week 7): −75% | Relative change (% from baseline) in Hot Flush Weekly Weighted Score, mean (15 mg, week 8): −76% | Relative change (% from baseline) in Hot Flush Weekly Weighted Score, mean (15 mg, week 9): −78% | Relative change (% from baseline) in Hot Flush Weekly Weighted Score, mean (15 mg, week 10): −77% | Relative change (% from baseline) in Hot Flush Weekly Weighted Score, mean (15 mg, week 11): −79% | Relative change in Hot Flush Weekly Weighted Score, LS adjusted mean (15 mg, week 12): −0.7683 | Covariate significance, covariate trt1, p_value, relative change in Hot Flush Weekly Weighted Score (week 4, 10 mg): 0.0037 | Covariate significance, covariate trt1, p_value, relative change in Hot Flush Weekly Weighted Score (week 12, 10 mg): 0.0015
